From patent US20260217735A1, “HETEROCYCLES AND USES THEREOF” (Kumquat Biosciences Inc., priority 2023, published 2026)

How the values were obtained:
KRAS G12D = target: T1, KRAS G12D (Homo sapiens, UniProt P01116, G12D); experiment: HTRF assay, KRAS G12D interaction with SOS1; assay type: biochemical; conditions: bins <500 nM / 500 nM to 1000 nM, read-out: Inhibition of KRAS G12D (IC50)
T1 construct: made in house; host or cells: E. coli, e.g. BL21 (DE3)

KRAS WT = target: T2, KRAS WT (Homo sapiens, UniProt P01116); experiment: HTRF assay, wildtype KRAS interaction with SOS1; assay type: biochemical; conditions: bins <500 nM / 500 nM to 1000 nM, read-out: Inhibition of KRAS WT (IC50)
T2 construct: made in house; host or cells: E. coli, e.g. BL21 (DE3)

KRAS G12V = target: T3, KRAS G12V (Homo sapiens, UniProt P01116, G12V); experiment: HTRF assay, KRAS G12V interaction with SOS1; assay type: biochemical; conditions: bins <500 nM / 500 nM to 1000 nM, read-out: Inhibition of KRAS G12V (IC50)
T3 construct: made in house; host or cells: E. coli, e.g. BL21 (DE3)

KRAS G12S = target: T4, KRAS G12S (Homo sapiens, UniProt P01116, G12S); experiment: HTRF assay, KRAS G12S interaction with SOS1; assay type: biochemical; conditions: bins <500 nM / 500 nM to 1000 nM, read-out: Inhibition of KRAS G12S (IC50)
T4 construct: made in house; host or cells: E. coli, e.g. BL21 (DE3)

MiaPaca2 cells = experiment: Ras cellular assay, growth of cells with K-Ras G12C mutation; assay type: cell-based; conditions: Homo sapiens, MIA PaCa-2; cell proliferation assay; bins ≤500 nM / >500 nM; read-out: Inhibition of MiaPaca2 Cells (IC50)
Method in brief: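 Anchorage-independent growth: G12C-mutant MIA PaCa-2 plated in soft agar, time-zero plate read the next day when compound was dosed (final DMSO 0.3%). After growth to day 10, MTS-type absorbance at 490/660 nm relative to time zero gave IC50 via four-parameter fitting.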

T4 sequence (P01116 1-188 isoform P01116-2 G12S): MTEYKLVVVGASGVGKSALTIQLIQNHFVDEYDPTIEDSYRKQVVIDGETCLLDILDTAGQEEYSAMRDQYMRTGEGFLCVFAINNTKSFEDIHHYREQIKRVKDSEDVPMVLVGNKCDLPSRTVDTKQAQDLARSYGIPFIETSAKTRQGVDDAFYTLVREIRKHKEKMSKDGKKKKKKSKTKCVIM
T2 sequence (P01116 1-188 isoform P01116-2): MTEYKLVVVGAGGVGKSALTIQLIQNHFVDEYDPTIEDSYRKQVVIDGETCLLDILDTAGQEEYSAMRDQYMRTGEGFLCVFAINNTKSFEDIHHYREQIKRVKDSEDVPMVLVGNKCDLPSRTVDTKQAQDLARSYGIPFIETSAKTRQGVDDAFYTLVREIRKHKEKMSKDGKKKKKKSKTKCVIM
T3 sequence (P01116 1-188 isoform P01116-2 G12V): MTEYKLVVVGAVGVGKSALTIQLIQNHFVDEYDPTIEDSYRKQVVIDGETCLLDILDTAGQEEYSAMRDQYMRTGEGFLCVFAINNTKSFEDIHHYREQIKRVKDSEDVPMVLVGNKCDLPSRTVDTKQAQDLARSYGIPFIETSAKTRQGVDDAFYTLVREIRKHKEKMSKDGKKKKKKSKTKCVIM
T1 sequence (P01116 1-188 isoform P01116-2 G12D): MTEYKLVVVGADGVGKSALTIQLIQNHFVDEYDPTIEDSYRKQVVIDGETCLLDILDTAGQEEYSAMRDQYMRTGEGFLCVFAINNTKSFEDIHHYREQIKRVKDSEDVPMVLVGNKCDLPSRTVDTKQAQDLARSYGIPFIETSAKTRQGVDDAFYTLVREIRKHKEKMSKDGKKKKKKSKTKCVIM

| Structure (SMILES) | IC50 (KRAS G12D) [nM] | IC50 (KRAS WT) [nM] | IC50 (KRAS G12V) [nM] | IC50 (KRAS G12S) [nM] | IC50 (MiaPaca2 cells) [nM] |
| --- | --- | --- | --- | --- | --- |
| C[C@@H]1[C@H](N(C)c2nc(OC[C@@]34CCCN3C[C@H](F)C4)nc3c(F)c(-c4ccc(F)c5sc(N)c(C#N)c45)c(Cl)cc23)CCN1C(=O)n1cccn1 [Compound 172, 2-amino-4-(6-chloro-8-fluoro-2-(((2R,7aS)-2-fluorotetrahydro-1H-pyrrolizin-7a(5H)-yl)methoxy)-4-(methyl((2R,3R)-2-methyl-1-(1H-pyrazole-1-carbonyl)pyrrolidin-3-yl)amino)quinazolin-7-yl)-7-fluorobenzo[b]thiophene-3-carbonitrile] | < 500 | < 500 | < 500 | < 500 | ≤ 500 |
| CCN(c1nc(OC[C@@]23CCCN2C[C@H](F)C3)nc2c(F)c(-c3ccc(F)c4sc(N)c(C#N)c34)c(C(F)(F)F)cc12)[C@@H]1CCN(C(=O)n2cc(C)nc2C)[C@@H]1C (atropisomer, axis not shown; (aS)) [Compound 114, (S)-2-amino-4-(4-(((2R,3R)-1-(2,4-dimethyl-1H-imidazole-1-carbonyl)-2-methylpyrrolidin-3-yl)(ethyl)amino)-8-fluoro-2-(((2R,7aS)-2-fluorotetrahydro-1H-pyrrolizin-7a(5H)-yl)methoxy)-6-(trifluoromethyl)quinazolin-7-yl)-7-fluorobenzo[b]thiophene-3-carbonitrile] | < 500 | < 500 | < 500 | < 500 | ≤ 500 |
| CCN(c1nc(OC[C@@]23CCCN2C[C@H](F)C3)nc2c(F)c(-c3ccc(F)c4sc(N)c(C#N)c34)c(Cl)cc12)[C@@H]1CCN(C(=O)n2ccnc2Cl)[C@@H]1C [Compound 186, 2-amino-4-(6-chloro-4-(((2R,3R)-1-(2-chloro-1H-imidazole-1-carbonyl)-2-methylpyrrolidin-3-yl)(ethyl)amino)-8-fluoro-2-(((2R,7aS)-2-fluorotetrahydro-1H-pyrrolizin-7a(5H)-yl)methoxy)quinazolin-7-yl)-7-fluorobenzo[b]thiophene-3-carbonitrile] | < 500 | < 500 | < 500 | < 500 | ≤ 500 |
| CN(c1nc(OC[C@@]23CCCN2C[C@H](F)C3)nc2c(F)c(-c3ccc(F)c4sc(N)c(C#N)c34)c(Cl)cc12)[C@@H]1CCN(C(=O)n2ccnc2)C1 [Compound 118, 4-(4-(((R)-1-(1H-imidazole-1-carbonyl)pyrrolidin-3-yl)(methyl)amino)-6-chloro-8-fluoro-2-(((2R,7aS)-2-fluorotetrahydro-1H-pyrrolizin-7a(5H)-yl)methoxy)quinazolin-7-yl)-2-amino-7-fluorobenzo[b]thiophene-3-carbonitrile] | < 500 | < 500 | < 500 | < 500 | ≤ 500 |
| CCN(c1nc(OC[C@@]23CCCN2C[C@H](F)C3)nc2c(F)c(-c3cc(N)c(F)c(C)c3C(F)(F)F)ncc12)[C@@H]1CCN(C(=O)n2cc(C)nc2C)[C@@H]1C [Compound 196, ((2R,3R)-3-((7-(5-amino-4-fluoro-3-methyl-2-(trifluoromethyl)phenyl)-8-fluoro-2-(((2R,7aS)-2-fluorotetrahydro-1H-pyrrolizin-7a(5H)-yl)methoxy)pyrido[4,3-d]pyrimidin-4-yl)(ethyl)amino)-2-methylpyrrolidin-1-yl)(2,4-dimethyl-1H-imidazol-1-yl)methanone] | 500 to 1000 | < 500 | < 500 | < 500 | ≤ 500 |
| Cc1cn(C(=O)N(C)CC2(F)CN(c3nc(OC[C@@]45CCCN4C[C@H](F)C5)nc4c(F)c(-c5ccc(F)c6sc(N)c(C#N)c56)c(Cl)cc34)C2)cn1 [Compound 109, N-((1-(7-(2-amino-3-cyano-7-fluorobenzo[b]thiophen-4-yl)-6-chloro-8-fluoro-2-(((2R,7aS)-2-fluorotetrahydro-1H-pyrrolizin-7a(5H)-yl)methoxy)quinazolin-4-yl)-3-fluoroazetidin-3-yl)methyl)-N,4-dimethyl-1H-imidazole-1-carboxamide] | < 500 | < 500 | < 500 | < 500 | ≤ 500 |
| Cc1cn(C(=O)N2CC(F)(CN(C)c3nc(OC[C@@]45CCCN4C[C@H](F)C5)nc4c(F)c(-c5ccc(F)c6sc(N)c(C#N)c56)c(Cl)cc34)C2)cn1 [Compound 128, 2-amino-4-(6-chloro-8-fluoro-4-(((3-fluoro-1-(4-methyl-1H-imidazole-1-carbonyl)azetidin-3-yl)methyl)(methyl)amino)-2-(((2R,7aS)-2-fluorotetrahydro-1H-pyrrolizin-7a(5H)-yl)methoxy)quinazolin-7-yl)-7-fluorobenzo[b]thiophene-3-carbonitrile] | < 500 | < 500 | < 500 | < 500 | ≤ 500 |
| CCN(c1nc(OC[C@@]23CCCN2C[C@H](F)C3)nc2c(F)c(-c3cc(N)c(F)c(C)c3C(F)(F)F)ncc12)[C@@H]1CCN(C(=O)n2cnc(Cl)n2)[C@@H]1C [Compound 208, ((2R,3R)-3-((7-(5-amino-4-fluoro-3-methyl-2-(trifluoromethyl)phenyl)-8-fluoro-2-(((2R,7aS)-2-fluorotetrahydro-1H-pyrrolizin-7a(5H)-yl)methoxy)pyrido[4,3-d]pyrimidin-4-yl)(ethyl)amino)-2-methylpyrrolidin-1-yl)(3-chloro-1H-1,2,4-triazol-1-yl)methanone] | < 500 | 500 to 1000 | < 500 | < 500 | ≤ 500 |

The next lines start with the values.

| IC50 (KRAS G12D) [nM] | IC50 (KRAS WT) [nM] | IC50 (KRAS G12V) [nM] | IC50 (KRAS G12S) [nM] | IC50 (MiaPaca2 cells) [nM] | Structure (SMILES) |
| --- | --- | --- | --- | --- | --- |
| < 500 | < 500 | < 500 | < 500 | ≤ 500 | C[C@@H]1[C@H](N(C)c2nc(OC[C@@]34CCCN3C[C@H](F)C4)nc3c(F)c(-c4ccc(F)c5sc(N)c(C#N)c45)c(Cl)cc23)CCN1C(=O)n1cc(C#N)cn1 [Compound 220, 1-((2R,3R)-3-((7-(2-amino-3-cyano-7-fluorobenzo[b]thiophen-4-yl)-6-chloro-8-fluoro-2-(((2R,7aS)-2-fluorotetrahydro-1H-pyrrolizin-7a(5H)-yl)methoxy)quinazolin-4-yl)(methyl)amino)-2-methylpyrrolidine-1-carbonyl)-1H-pyrazole-4-carbonitrile] |
| < 500 | < 500 | < 500 | < 500 | ≤ 500 | CCN(c1nc(OC[C@@]23CCCN2C[C@H](F)C3)nc2c(F)c(-c3ccc(F)c4sc(N)c(C#N)c34)ncc12)[C@@H]1CCN(C(=O)n2cnc(Cl)n2)[C@@H]1C [Compound 177, 2-amino-4-(4-(((2R,3R)-1-(3-chloro-1H-1,2,4-triazole-1-carbonyl)-2-methylpyrrolidin-3-yl)(ethyl)amino)-8-fluoro-2-(((2R,7aS)-2-fluorotetrahydro-1H-pyrrolizin-7a(5H)-yl)methoxy)pyrido[4,3-d]pyrimidin-7-yl)-7-fluorobenzo[b]thiophene-3-carbonitrile] |
| < 500 | < 500 | < 500 | < 500 | ≤ 500 | Cc1ncn(C(=O)N2CC[C@@]23CCN(c2nc(OC[C@@]45CCCN4C[C@H](F)C5)nc4c(F)c(-c5ccc(F)c6sc(N)c(C#N)c56)c(Cl)cc24)C3)c1C [Compound 147, 2-amino-4-(6-chloro-4-((R)-1-(4,5-dimethyl-1H-imidazole-1-carbonyl)-1,6-diazaspiro[3.4]octan-6-yl)-8-fluoro-2-(((2R,7aS)-2-fluorotetrahydro-1H-pyrrolizin-7a(5H)-yl)methoxy)quinazolin-7-yl)-7-fluorobenzo[b]thiophene-3-carbonitrile] |
| < 500 | < 500 | < 500 | < 500 | ≤ 500 | Cc1nccn1C(=O)N1CC[C@@H](N(C)c2nc(OC[C@@]34CCCN3C[C@H](F)C4)nc3c(F)c(-c4ccc(F)c5sc(N)c(C#N)c45)c(Cl)cc23)[C@H]1C [Compound 120, 2-amino-4-(6-chloro-8-fluoro-2-(((2R,7aS)-2-fluorotetrahydro-1H-pyrrolizin-7a(5H)-yl)methoxy)-4-(methyl((2R,3R)-2-methyl-1-(2-methyl-1H-imidazole-1-carbonyl)pyrrolidin-3-yl)amino)quinazolin-7-yl)-7-fluorobenzo[b]thiophene-3-carbonitrile] |
